Source: patent publication US5866611A, “Therapeutic amines” (Zeneca Limited, priority 1993, dated 1999)
Counter-ions that a name gives are not always drawn.

Columns and labels:
[1] = test system: de novo hepatic cholesterol synthesis; assay: Acute rat cholesterol synthesis assay; conditions: acute in vivo, female rats, 14C-acetate ip, plasma cholesterol specific radioactivity, route for this compound not given
Procedure: (b) Acute rat cholesterol synthesis assay.
This is an acute in vivo test in the rat to measure de novo hepatic cholesterol synthesis from exogenously administered ^14 C-acetate.
Female rats (35-55 g) are housed in reverse lighting conditions (red light from 0200 h-1400 h) for a period of about 2 weeks prior to test. Animals are allowed free access to chow and drinking water throughout this period. At test, animals should weigh 125-150 g.
Test compounds may be administered by oral gavage, dissolved or suspended in 0.5% polysorbate, or by ip or iv dosing. Control animals receive vehicle alone. After 1 hour the rats are injected ip with 25 μCi [2-^14 C]-acetate (NEN DUPONT. specific activity, 45-60mCi/mmol NEC-085H, or AMERSHAN specific activity, 50-60 mCi/mmol CFA 14) in a volume of 0.25 ml saline (100 μCi/ml). After a further hour, rats are terminally anaesthetised with halothane and a blood sample obtained from the abdominal vena cava.
1ml of plasma is lyophilised and then saponified in 2ml ethanolic KOH (1 part 33% KOH, 9 parts ethanol) at […] for 2 hours. After addition of an equal quantity of water, non-saponifiable lipids are extracted with two 5ml volumes of hexane. The hexane extracts are evaporated to dryness and the residues dissolved in ethanol to determine cholesterol specific radioactivity. ED50 values can be determined in the standard way.

Squalene synthase = assay: Inhibition of Squalene synthase; assay type: biochemical; conditions: rat liver microsomal protein, 15 min, 37° C.
Procedure: (a) Inhibition of Squalene synthase
In this test, the ability of a compound to prevent the formation of squalene from a radioactive substrate (tritiated farnesyl pyrophosphate) is assessed.
The test compound is incubated at a concentration of 25 micromolar in 200 μl of a buffered solution containing potassium phosphate (50 mM), MgCl2 (4.95 mM), KF (9.9 mM), NADPH (0.9 mM) and rat liver microsomal protein (20 μg). Rat liver microsomes are prepared by the method described in published European Patent Application No. 324,421 and stored in liquid nitrogen prior to assay. Assay vials are kept at 37° C. throughout the incubation.
The reaction is started with the addition of the substrate (1-[^3 H]-farnesyl pyrophosphate), final concentration […], and stopped after 15 minutes reaction time with the addition of 50 μl of 4% KOH. The reaction products are separated from unreacted substrate after application to a C-18 octadecyl 1ccBond column (Analytichem Int product No. 617101). An aqueous fraction is eluted with 250 μl of 0.1M KOH. Squalene is then eluted with 1.0 ml 10% ethylacetate in hexane and radioactivity determined. The difference in radioactivity in the presence and absence of the test compound is used to determine the level of inhibition. […] The IC50 can then be determined from a plot of percentage inhibition against concentration of test compound.

Structure (SMILES) | ED50 [1] | inhibition of squalene synthase (Squalene synthase; at 2.5 μM) | inhibition of squalene synthase (Squalene synthase; at a concentration of 25 μM)
CCCc1cc(NC(C)=O)ccc1OCCCNC(C)C [Example 95, 3-n-propyl-4-(3-[N-isopropylamino]propoxy)-acetanilide hydrochloride] | 27 mg/kg | about 86% | 
CCCCOc1ccc(OCCCNC(C)C)c(CCC)c1 [Example 2, N-isopropyl-3-(4-butoxy-2-propylphenoxy)propylamine] |  |  | about 74%
